Our source for the IC50 values is ChEMBL document CHEMBL4665769, “Artemyrianolides A-S, Cytotoxic Sesquiterpenoids from Artemisia myriantha” (J Nat Prod, 2020).

What is called IC50 is the concentration needed to halve the response being measured.

Common to all, as to format: functional, cell-based
Experiment [1] relates to HepG2. As to the kind of experiment: Cytotoxicity against human HepG2 cells assessed as reduction in cell viability after 48 hrs by MTT assay. The settings on record: HepG2, 48 h. Background: Formazan colour is commonly taken as a measure of viable cells.
Experiment [2] has as its system Huh-7. As to the kind of experiment: Cytotoxicity against human Huh-7 cells assessed as reduction in cell viability after 48 hrs by MTT assay. The settings on record: Huh-7, 48 h.
Experiment [3] has as its system SMMC-7721. Put plainly: Cytotoxicity against human SMMC-7721 cells assessed as reduction in cell viability after 48 hrs by MTT assay. The settings on record: SMMC-7721, 48 h.

For the molecule `C=C1C(=O)O[C@@H]2C[C@H](C)[C@]3(/C=C/C(C)=O)O[C@@H]3C[C@H]12`, the IC50 in experiment [1] was over 10 µM; in experiment [2] it was 8.2 µM; in experiment [3], over 10 µM.

Consider `C=C1C(=O)O[C@@H]2C[C@]3(C)[C@@H](CCC(C)=O)[C@@H]3C[C@H]12`, for which the IC50 in experiment [1] was over 7.4 µM; in experiment [2] it was 7.8 µM; in experiment [3], over 10 µM.

`C=C1C(=O)O[C@@H]2C[C@@]3(C)C=CC(=O)C(C)=C3C[C@H]12`: the 50% inhibitory concentration (IC50) in experiment [1], in experiment [2] and in experiment [3] was over 10 µM each time.

Regarding `C=C1C[C@@H](OC(C)=O)/C=C(\C)C[C@@H]2OC(=O)C(=C)[C@H]2C[C@H]1O`, the IC50 in experiment [1], in experiment [2] and in experiment [3] was over 10 µM throughout.

For `C=C1C(=O)O[C@@H]2CC(=C)[C@@H]3CC[C@@](C)(O)[C@@H]3C[C@H]12`, the IC50 in experiment [1], in experiment [2] and in experiment [3] was over 10 µM each time.

As to `C=C1C[C@H]2OC(=O)C(=C)[C@H]2C[C@@H](O)C(=C)CCC1=O`, the IC50 in experiment [1], in experiment [2] and in experiment [3] was over 10 µM each time.

As to `C=C1C[C@@H]2OC(=O)C(=C)[C@H]2C[C@@H]2[C@@H]1[C@H](OC(C)=O)C[C@@]2(C)O`, the IC50 in experiment [1], in experiment [2] and in experiment [3] was over 10 µM throughout.

With `C=C1C(=O)O[C@H]2C/C(C)=C/[C@H](OC(C)=O)C[C@@]3(C)O[C@H]3C[C@H]12`, the IC50 in experiment [1], in experiment [2] and in experiment [3] was over 10 µM each time.

`C=C1C(=O)O[C@@H]2C[C@]3(C)[C@@H](C[C@H]12)[C@H](C)C(=O)[C@@H]1O[C@@H]13`: the half-maximal inhibitory concentration (IC50) in experiment [1], in experiment [2] and in experiment [3] was over 10 µM throughout.

Consider `C=C1C(=O)O[C@@H]2C[C@]3(C)O[C@H](C[C@H]12)C(=C)CC[C@@H]3O`, for which the IC50 in experiment [1], in experiment [2] and in experiment [3] was over 10 µM throughout.

For the molecule `C=C1C(=O)O[C@H]2C[C@@]3(C)[C@H](O)CCC(=C)[C@]3(O)C[C@H]12`, the IC50 in experiment [1], in experiment [2] and in experiment [3] was over 10 µM each time.

As for `C=C1C(=O)O[C@H]2C[C@@]3(C)[C@H](O)CCC(=C)[C@]3(OO)C[C@H]12`, the IC50 in experiment [1], in experiment [2] and in experiment [3] was over 10 µM in each case.

With `C=C1C(=O)O[C@H]2C/C(C)=C/[C@H](OC(C)=O)CC(=C)[C@@H](O)C[C@H]12`, the IC50 in experiment [1], in experiment [2] and in experiment [3] was over 10 µM throughout.

`C=C1C[C@@H](OC(C)=O)/C=C(\C)C[C@@H]2OC(=O)C(=C)[C@H]2C[C@@H]1OO`: the figures for the 50% inhibitory concentration (IC50) in experiment [1], in experiment [2] and in experiment [3] were over 10 µM, 10 µM and over 10 µM, respectively.

On to `C=C1C[C@@H](OC(C)=O)/C=C(\C)C[C@@H]2OC(=O)C(=C)[C@H]2CC1=O`, for which the IC50 in experiment [1] was determined as 4.9 µM; in experiment [2], 4.3 µM; in experiment [3] it was 3.1 µM.

Take `C=C1C[C@@H](OC(C)=O)/C=C(\C)C[C@@H]2OC(=O)C(=C)[C@H]2C[C@@H]1OC(C)=O`: the IC50 in experiment [1], in experiment [2] and in experiment [3] was over 10 µM throughout.

As for `C=C1C(=O)O[C@H]2C/C(C)=C/[C@H](OC(C)=O)C[C@@]3(CO3)C(=O)C[C@H]12`, the concentration for half-maximal inhibition (IC50) is 8.6 µM in experiment [1], 8.8 µM in experiment [2] and over 10 µM in experiment [3].

With `CNC(=O)c1cc(Oc2ccc(NC(=O)Nc3ccc(Cl)c(C(F)(F)F)c3)cc2)ccn1` [SORAFENIB], the results for the half-maximal inhibitory concentration (IC50) in experiment [1], in experiment [2] and in experiment [3] were 8 µM, 10.1 µM and over 10 µM, respectively.

As to `C=C1C(=O)O[C@@H]2C[C@@]3(C)CCCC(=C)[C@]3(O)C[C@H]12` [TELEKIN], the half-inhibitory concentration (IC50) in experiment [1], in experiment [2] and in experiment [3] was over 10 µM throughout.
